Measurements reported in paper PMC8815882, “Screening the pandemic response box identified benzimidazole carbamates, Olorofim and ravuconazole as promising drug candidates for the treatment of eumycetoma” (PLoS Neglected Tropical Diseases, 2022).
Values after ≈ are worked out from the molar mass of the structure shown. Like-named read-outs stand apart in the source and are kept apart here.

How the values were obtained:
M. mycetomatis = experiment: Drug static or cidal; format: cell-based, Madurella mycetomatis
Text: Supplement pntd.0010159.s001.xlsx, sheet "Pandemic Box Master sheet" | column: Drug static or cidal

M. mycetomatis MM55 = experiment: IC50 determination, 2-fold dilution series; format: cell-based, Madurella mycetomatis; conditions: for IC50 / IC90: Madurella mycetomatis
[1] = tested on: M. mycetomatis genome strain MM55; experiment: CLSI M38-A2 based in vitro susceptibility screening (XTT or resazurin), growth at fixed concentration; format: cell-based, Madurella mycetomatis; conditions: Madurella mycetomatis
[2] = tested on: ten different M. mycetomatis isolates; set-up: method as in PMID 24945848, PMID 22964246, PMID 31904836; conditions: asterisk: determined in previous works ref 19-21; cited from earlier work
[3] = tested on: M. mycetomatis isolate MM55; experiment: M. mycetomatis grain infection model in G. mellonella larvae, survival; format: in vivo, Galleria mellonella; conditions: for Effect on larvae survival Day 4 (words): day four
[4] = tested on: Me. romeroi strain CBS128765; experiment: CLSI M38-A2 based in vitro susceptibility screening at 25 μM; format: cell-based, Medicopsis romeroi; conditions: selected if >75% (resazurin) or >80% (XTT) fungal growth inhibited
[5] = tested on: ten different M. mycetomatis isolates; experiment: MIC / MIC50 determination (XTT) in ten M. mycetomatis isolates; format: cell-based, Madurella mycetomatis; conditions: Madurella mycetomatis
[6] = MM55, mean of replicates, read-out: IC50 mean
[7] = MM55, replicate 1, read-out: IC50 1 um
[8] = MM55, replicate 1, read-out: IC90 1 um
[9] = MM55, replicate 2, read-out: IC50 2 um
[10] = MM55, replicate 2, read-out: IC90 2 um
[11] = MM55, replicate 3, read-out: IC50 3 um
[12] = MM55, replicate 3, read-out: IC90 3 um
[13] = 25 uM, mean of three replicates, read-out: Percentage survival at 25um, 25 uM mean
[14] = 25 uM, replicate A, read-out: Percentage survival at 25um, 25 um A
[15] = 25 uM, replicate B, read-out: Percentage survival at 25um, 25 uM B
[16] = 25 uM, replicate C, read-out: Percentage survival at 25um, 25 uM C
[17] = first replicate column, read-out: Percentage survival at 100um, 100 uM A
[18] = mean of three replicates, read-out: Percentage survival at 100um, 100 uM mean
[19] = second replicate column, read-out: Percentage survival at 100um, 100 uM A
[20] = third replicate column, read-out: Percentage survival at 100um, 100 uM A
[21] = MM55, Table 2, M. mycetomatis MM55, read-out: IC50
[22] = G. mellonella larvae infected with M. mycetomatis

Clc1ccc(Cn2c(CN3CCCC3)nc3ccccc32)cc1 [MMV002015]
Drug static or cidal (M. mycetomatis): Cidal
IC50 (M. mycetomatis MM55; [6]): > 25000 nM
IC90 (M. mycetomatis MM55; MM55, mean of replicates, read-out: IC90 mean): > 25000 nM
IC50 (M. mycetomatis MM55; [7]): > 25000 nM
IC90 (M. mycetomatis MM55; [8]): > 25000 nM
IC50 (M. mycetomatis MM55; [9]): > 25000 nM
IC90 (M. mycetomatis MM55; [10]): > 25000 nM
IC50 (M. mycetomatis MM55; [11]): > 25000 nM
IC90 (M. mycetomatis MM55; [12]): > 25000 nM
activity at 25 µM [1, 13]: 6.67%
activity at 25 µM [1, 14]: 9.47%
activity at 25 µM [1, 15]: -1.23%
activity at 25 µM [1, 16]: 11.8%
activity at 100 µM [1, 17]: 3.95%
activity at 100 µM [1, 18]: 4.96%
activity at 100 µM [1, 19]: 6.49%
activity at 100 µM [1, 20]: 4.45%

CNCC(=O)OCc1cccnc1N(C)C(=O)OC(C)[n+]1cnn(C[C@](O)(c2cc(F)ccc2F)[C@@H](C)c2nc(-c3ccc(C#N)cc3)cs2)c1 (some centres unmarked) [MMV1634494, Isavuconazonium, reference compound]
Drug static or cidal (M. mycetomatis MM55): Cidal
IC50 (M. mycetomatis MM55; [21]): 40 nM
IC50 (M. mycetomatis MM55; MM55, mean, read-out: IC50 mean): 630 nM
IC90 (M. mycetomatis MM55; MM55, read-out: IC90 mean): 1080 nM
IC50 (M. mycetomatis MM55; MM55, replicate 1, read-out: IC50 1): 350 nM
IC90 (M. mycetomatis MM55; MM55, replicate 1, read-out: IC90 1): 680 nM
IC50 (M. mycetomatis MM55; MM55, replicate 2, read-out: IC50 2): 750 nM
IC90 (M. mycetomatis MM55; MM55, replicate 2, read-out: IC90 2): 1300 nM
IC50 (M. mycetomatis MM55; MM55, replicate 3, read-out: IC50 3): 790 nM
IC90 (M. mycetomatis MM55; MM55, replicate 3, read-out: IC90 3): 1260 nM
MIC50 [2]: 0.04 µM
MIC range [2]: <0.02 to 0.17 µM
activity at 25 µM ([1]; 25 uM, mean, read-out: Percentage survival at 25um, 25 uM mean): -2.78%
activity at 25 µM [1, 14]: -3.3%
activity at 25 µM [1, 15]: -6.46%
activity at 25 µM [1, 16]: 1.41%
activity at 100 µM ([1]; mean, read-out: Percentage survival at 100um, 100 uM mean): 7.96%
activity at 100 µM ([1]; replicate (first column), read-out: Percentage survival at 100um, 100 uM A): 2.09%
activity at 100 µM ([1]; replicate (second column), read-out: Percentage survival at 100um, 100 uM A): 14.1%
activity at 100 µM ([1]; replicate (third column), read-out: Percentage survival at 100um, 100 uM A): 7.75%

CN1CCN(Cc2ccc(-c3cnc4[nH]cc(-c5ccc6[nH]ccc6c5)c4c3)cc2)CC1 [MMV1580482]
Drug static or cidal (M. mycetomatis): Static
IC50 (M. mycetomatis MM55; [6]): 15800 nM
IC50 (M. mycetomatis MM55; [7]): 17400 nM
IC90 (M. mycetomatis MM55; [8]): > 25000 nM
IC50 (M. mycetomatis MM55; [9]): 15300 nM
IC90 (M. mycetomatis MM55; [10]): 22800 nM
IC50 (M. mycetomatis MM55; [11]): 14600 nM
IC90 (M. mycetomatis MM55; [12]): 22200 nM
activity at 25 µM [1, 13]: 2.87%
activity at 25 µM [1, 14]: 0.0624%
activity at 25 µM [1, 15]: 1.21%
activity at 25 µM [1, 16]: 7.33%
activity at 100 µM [1, 17]: 27.2%
activity at 100 µM [1, 18]: 16.3%
activity at 100 µM [1, 19]: 11.5%
activity at 100 µM [1, 20]: 10.2%

COC(=O)Nc1nc2ccccc2[nH]1 [MMV344625, Carbendazim]
Effect on larvae survival Day 4 (words) ([3]; 20 μM per larvae, vs infected control): Increase survival
Effect on larvae survival Day 4 (words) ([3]; 20 μM per larvae, vs infected control, listed as carbendazim): significantly increase larvae survival
Effect on larvae survival Day 10 (words) ([3]; 20 μM per larvae, vs infected control, day ten): No
In vivo efficacy, Enhanced survival compared to control? [3, 22]: no
In vivo efficacy, Larvae survival % [3, 22]: 6.7%
Drug static or cidal (M. mycetomatis MM55; M. mycetomatis): Static
IC50 (M. mycetomatis MM55; [21]): 1320 nM
IC50 (M. mycetomatis MM55; [6]): 1320 nM
IC50 (M. mycetomatis MM55; [7]): 2280 nM
IC90 (M. mycetomatis MM55; [8]): 4720 nM
IC50 (M. mycetomatis MM55; [9]): 700 nM
IC90 (M. mycetomatis MM55; [10]): 1500 nM
IC50 (M. mycetomatis MM55; [11]): 970 nM
IC90 (M. mycetomatis MM55; [12]): > 25000 nM
Inhibits growth of Medicopsis romeroi at 25 μM [4]: inhibit the growth
activity at 25 µM ([1]; 25 uM, replicate A, M. mycetomatis MM55, read-out: Percentage survival at 25um, 25 um A): 1.64%
activity at 100 µM ([1]; mean of three, M. mycetomatis MM55, read-out: Percentage survival at 100um, 100 uM mean): 8.48%
activity at 100 µM ([1]; replicate 1, M. mycetomatis MM55, read-out: Percentage survival at 100um, 100 uM A (first replicate column)): 0.376%
activity at 100 µM ([1]; replicate 2, M. mycetomatis MM55, read-out: Percentage survival at 100um, 100 uM A (second replicate column)): 3.66%
activity at 100 µM ([1]; replicate 3, M. mycetomatis MM55, read-out: Percentage survival at 100um, 100 uM A (third replicate column)): 21.4%
activity at 25 µM ([1]; read-out: Percentage survival at 25um, 25 uM B): 6.23%
activity at 25 µM ([1]; read-out: Percentage survival at 25um, 25 uM C): 2.7%
activity at 25 µM ([1]; read-out: Percentage survival at 25um, 25 uM mean): 3.52%
MIC50 ([5]; Table 3 and Fig 5, benzimidazole carbamates, M. mycetomatis, read-out: MIC50): 0.5 µM (≈ 0.0956 µg/mL)
MIC50 ([5]; median MIC over ten M. mycetomatis isolates, no asterisk, read-out: MIC50): 0.5 µM (≈ 0.0956 µg/mL)
MIC50 ([5]; over the tested M. mycetomatis isolates, read-out: MIC50 mean): 0.5 µM (≈ 0.0956 µg/mL)
MIC ([5]; isolate CBS247.48, read-out: MIC CBS247.48): 0.5 µM (≈ 0.0956 µg/mL)
MIC ([5]; isolate MM14, read-out: MIC MM14): < 0.0312 µM
MIC ([5]; isolate MM45, read-out: MIC MM45): 1 µM (≈ 0.191 µg/mL)
MIC ([5]; isolate MM55, read-out: MIC MM55): 0.5 µM (≈ 0.0956 µg/mL)
MIC ([5]; isolate P1, read-out: MIC P1): 0.5 µM (≈ 0.0956 µg/mL)
MIC ([5]; isolate ParijsAl1, read-out: MIC ParijsAl1): 1 µM (≈ 0.191 µg/mL)
MIC ([5]; isolate Peru72012, read-out: MIC Peru72012): 1 µM (≈ 0.191 µg/mL)
MIC ([5]; isolate So1, read-out: MIC So1): 0.5 µM (≈ 0.0956 µg/mL)
MIC ([5]; isolate i1, read-out: MIC i1): 0.5 µM (≈ 0.0956 µg/mL)
MIC ([5]; isolate i11, read-out: MIC i11): 2 µM (≈ 0.382 µg/mL)
